In publication PMC3986359, “New Cholinesterase Inhibitory Constituents from Lonicera quinquelocularis” (PLoS ONE, 2014):
Like-named read-outs stand apart in the source and are kept apart here.

Legend:
[1] = target: T1, butyrylcholinesterase (horse-serum E.C 3.1.1.8) (Equus caballus, UniProt P81908); test: biochemical; assay type: biochemical; conditions: for BChE inhibition profile (in words): qualitative statement
T1 construct: butyrylcholinesterase (horse-serum E.C 3.1.1.8); purchased Sigma, Pakistan; host or cells: horse serum
Method: (§1) All other chemicals were of analytical grade and were used as such without further purification. Acetylcholinesterase (AChE) and butyrylcholinesterase (BChE) inhibiting activities were measured according to a modified spectrophotometric method used by Ellman et al.. Protocol and assay conditions were the same as described by Rocha et al..
(§2) The Acetylthiocholine iodide and butyrylthiocholine chloride were used as substrates for investigation of acetylcholinesterase and butyrylcholinesterase assays, respectively. The 5,5′-Dithiobis[2-nitrobenzoic-acid] (DTNB) was used for the measurement of cholinesterase activity. The 0.2 mM DTNB in 62 mM sodium phosphate buffer (pH 8.0, 880 µL), test compound solution (40 µL) and acetylcholinesterase or butyrylcholinesterase solution (40 µL) were mixed and incubated for 15 minutes (25°C). The reaction was then initiated by the addition of acetylthiocholine or butyrylthiocholine (40 µL), respectively. […] All the reactions were performed in triplicate using a BMS spectrophotometer (USA). […] The final concentration of DMSO in the reaction mixture was maintained at 6%.

[2] = target: T2, Acetylcholinesterase (EC 3.1.1.7) (Homo sapiens, UniProt P22303); test: biochemical; assay type: biochemical; conditions: for IC50: read-out: AChE ± SEM (IC50); for AChE inhibition profile (in words): qualitative statement
T2 construct: purchased Sigma, Pakistan
Method: as §1, §2

[3] = acetylthiocholine iodide substrate, DTNB, pH 8.0, 25°C, 412 nm, value ± SEM
[4] = butyrylthiocholine chloride substrate, DTNB, pH 8.0, 25°C, 412 nm, value ± SEM, read-out: BChE ± SEM (IC50)

T2 sequence (P22303 32-614): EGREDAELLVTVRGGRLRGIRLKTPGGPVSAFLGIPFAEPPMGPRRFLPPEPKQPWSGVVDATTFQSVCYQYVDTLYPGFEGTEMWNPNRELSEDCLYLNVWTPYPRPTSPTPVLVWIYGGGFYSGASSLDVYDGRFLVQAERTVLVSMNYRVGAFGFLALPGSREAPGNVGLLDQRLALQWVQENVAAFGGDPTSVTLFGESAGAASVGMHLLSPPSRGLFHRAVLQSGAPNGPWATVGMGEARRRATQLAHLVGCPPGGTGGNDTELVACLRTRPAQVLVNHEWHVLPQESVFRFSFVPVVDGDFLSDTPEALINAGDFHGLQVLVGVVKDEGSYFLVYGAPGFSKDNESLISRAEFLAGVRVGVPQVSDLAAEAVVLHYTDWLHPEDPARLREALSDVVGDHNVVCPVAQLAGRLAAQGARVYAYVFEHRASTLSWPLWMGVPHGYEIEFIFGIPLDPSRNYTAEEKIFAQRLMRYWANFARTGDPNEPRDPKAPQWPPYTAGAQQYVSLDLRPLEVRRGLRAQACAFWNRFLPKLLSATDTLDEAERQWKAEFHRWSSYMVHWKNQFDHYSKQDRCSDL
T1 sequence (P81908 whole entry): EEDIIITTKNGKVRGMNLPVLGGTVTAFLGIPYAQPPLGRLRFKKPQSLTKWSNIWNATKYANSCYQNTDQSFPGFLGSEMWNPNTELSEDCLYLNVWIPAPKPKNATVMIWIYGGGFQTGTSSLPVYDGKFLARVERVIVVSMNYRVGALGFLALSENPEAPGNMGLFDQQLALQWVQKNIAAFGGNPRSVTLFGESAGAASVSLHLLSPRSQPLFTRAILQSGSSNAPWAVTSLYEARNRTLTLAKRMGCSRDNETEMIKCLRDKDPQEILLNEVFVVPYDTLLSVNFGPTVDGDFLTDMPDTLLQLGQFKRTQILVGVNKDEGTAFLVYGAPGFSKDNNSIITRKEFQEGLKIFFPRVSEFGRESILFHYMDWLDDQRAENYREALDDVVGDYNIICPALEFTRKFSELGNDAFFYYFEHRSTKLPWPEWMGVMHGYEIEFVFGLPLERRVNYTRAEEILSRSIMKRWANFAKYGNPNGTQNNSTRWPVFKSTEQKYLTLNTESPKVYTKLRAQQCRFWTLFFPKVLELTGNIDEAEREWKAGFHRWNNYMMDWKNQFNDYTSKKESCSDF

SMILES	IC50 [1] [µM]	BChE inhibition profile (in words) [1]	IC50 [2, 3] [µM]	AChE inhibition profile (in words) [2]	IC50 [1, 4] [µM]	BChE ± SEM (IC50) ([1]; butyrylthiocholine chloride substrate, DTNB, pH 8.0, 25°C, 412 nm, value ± SEM)	AChE ± SEM (IC50) [2, 3]
CCCCCCCCOC(=O)c1ccccc1C(=O)OCCCCCCCC [Compound 2, dioctyl phthalate]	20.12 ± 0.079	weak inhibition profile	8.74 ± 0.07	weak inhibition profile	–	–	–
CC(C)=CCc1cc(C(=O)OCC(C)(C)C)cc(CC=C(C)C)c1O [Compound 5, Neopentyl-4-hydroxy-3,5-bis [3-methyl-2-butenyl] benzoate]	–	–	3.43 ± 0.02	–	9.84 ± 0.037	–	–
CCCCC(CC)COC(=O)c1ccccc1C(=O)OCC(CC)CCCC (stereo not shown) [Compound 1, bis (2-ethylhexyl phthalate]	–	inactive	–	inactive	–	Nil	Nil
CCOc1c(CC=C(C)C)cc(C(=O)OCC(C)(C)C)cc1CC=C(C)C [Compound 4, Neopentyl-4-ethoxy-3,5-bis [3-methyl-2-butenyl] benzoate]	–	weak inhibition profile	5.27 ± 0.04	weak inhibition profile	14.76 ± 0.087	–	–
CCC(CCC(C)CCOC(C)=O)COC(=O)c1ccccc1C(=O)OCC(CC)CCC(C)CCOC(C)=O (stereo not shown) [Compound 3, Bis (7-acetoxy-2-ethyl-5-methylheptyl) phthalate]	–	–	1.65 ± 0.03	–	5.98 ± 0.079	–	–
